Test results published in paper PMC8003278, “Structure-Based Virtual Screening and De Novo Design of PIM1 Inhibitors with Anticancer Activity from Natural Products” (Pharmaceuticals, 2021).

Experiments:
[1] = biological target: T1, PIM1 kinase (Homo sapiens, UniProt P11309); test: radiometric ([γ-33P]-ATP) kinase assay, PIM1 enzyme inhibition (Reaction Biology Corp.); assay type: biochemical
T1 construct: purchased Reaction Biology Corp. (Malvern, PA, USA), contract assay service
Source text: Among a total of 42,613 natural products in the chemical database, 31,874 molecules that satisfied the physicochemical property criteria for a potential drug candidate were screened through docking simulations in the ATP-binding site of PIM1 kinase, as illustrated in Figure 1. Using the modified binding free energy function involving an accurate molecular dehydration term, 100 top-scoring compounds were selected as the virtual hits, all of which were commercially available from a compound vendor (InterBioScreen Ltd., https://www.ibscreen.com, accessed on 15 October 2019). All these putative inhibitors were tested for the presence of the inhibitory activity against PIM1 kinase with in vitro radiometric ([γ-^33P]-ATP) kinase assays (Reaction Biology Corp., Malvern, PA, USA).
The inhibitory activities of all compounds with respect to PIM1 were measured by Reaction Biology Corp. (Malvern, PA, USA) using radiometric kinase assays ([γ-^33P]-ATP). Briefly, the enzymatic reaction mixtures contained an artificial substrate peptide, poly-Glu-Tyr (4:1), in freshly prepared base reaction buffer (20 mM hydroxyethyl piperazine ethane sulfonic acid (HEPES) of pH 7.5, 10 mM MgCl2, 1 mM ethylene glycol tetraacetic acid (EGTA), 0.02% Brij-35, 0.02 mg/mL bovine serum albumin (BSA), 0.1 mM Na3VO4, 2 mM dithiothreitol (DTT), and 1% DMSO). PIM1 kinase was delivered into the substrate solution and gently mixed. Each inhibitor in 100% DMSO in a serial dilution was then delivered to the reaction mixture using the acoustic dispensing system (Echo550; nanoliter range). To initiate the enzymatic reaction, ^33P-ATP with a specific activity of 10 μCi/μL was added into the reaction mixture, which was further incubated for 2 h at room temperature. Radioactivity was then monitored by the filter-binding method after the reactions were spotted onto P81 ion exchange paper, and the filters were washed extensively in 0.75% phosphoric acid. Kinase activity data were expressed as the percent remaining kinase activity in test samples compared to vehicle (dimethyl sulfoxide) reactions. IC50 values and curve fits were calculated with Prism Software (GraphPad Software) at 10 different concentrations in duplicate.

[2] = test system: T47D human breast cancer cell lines; test: MTT cell proliferation inhibition assay in T47D cells; assay type: cell-based; conditions: antiproliferative activity in T47D cell lines, mean ± standard deviation of the two experiments
Description: To assess the anticancer activities of these new PIM1 inhibitors, we carried out cell-based assays for 5, 8, 14, 15, and 16 using T47D human cancer cell lines, which represented breast cancer caused by PIM1 [48]. The natural product wortmannin served as a positive control in this cellular study. Cell viabilities were measured at varying inhibitor concentrations with a 3-(4,5-dimethylthiazol-2-yl)-2,5-diphenyltetrazolium bromide (MTT) assay. […]. However, it should be noted that the inhibitory activities of 14–16 decrease from the nanomolar level in enzyme inhibition assays (Table 2) to the micromolar level in cell proliferation assays. The poor cell permeability can be invoked to explain the reduced biochemical potency in cell-based assays. In order for the new PIM1 inhibitors to become a good lead compound for the development of anticancer medicines, improving cellular permeability using further structural modifications is required.
The T47D human breast cancer cell lines were purchased from Korean Cell Line Bank (KCLB, Seoul, Korea). T47D cells were then cultured in Roswell Park Memorial Institute 1640 (RPMI-1640) medium with 10% fetal bovine serum (FBS) and 1% penicillin/streptomycin, and maintained at 37 °C in a CO2 incubator with a controlled humidified atmosphere comprising 95% air and 5% CO2. All the cell culture reagents were purchased from Thermo Fisher Scientific.
Cell viability was measured with 3-(4,5-dimethylthiazol-2-yl)-2,5-diphenyltetrazolium bromide (MTT) assay using the natural product wortmannin as a positive control. At first, T47D cells were plated at a density of 3–5 × 10^3 cells/well in 96-well plates for 24 h and then treated with either DMSO as a control or with varying concentrations of the PIM1 inhibitors (5, 8, 14, 15, and 16). The final concentration of DMSO in the medium was <0.1% (v/v). After the incubation of cells for 48 h, 20 μL of MTT solution (5 mg/mL) was added to each well for 4 h at 37 °C. The formazan crystals formed during the mixing were dissolved in DMSO (100 μL/well) by shaking for 5 min. Duplicate wells were used for each analysis although triplicate measurements would be more reliable. After 72 h, the absorbance of each solution was measured with a microplate reader at 540 nm to calculate the antiproliferative activity of the PIM1 inhibitors. Finally, the IC50 values were measured from the dose–response curves.

[3] = PIM1, natural-product inhibitors, mean ± standard deviation of the two experiments
[4] = PIM1 kinase, derivatives of 2, mean ± standard deviation of the two experiments

T1 sequence (P11309 whole entry): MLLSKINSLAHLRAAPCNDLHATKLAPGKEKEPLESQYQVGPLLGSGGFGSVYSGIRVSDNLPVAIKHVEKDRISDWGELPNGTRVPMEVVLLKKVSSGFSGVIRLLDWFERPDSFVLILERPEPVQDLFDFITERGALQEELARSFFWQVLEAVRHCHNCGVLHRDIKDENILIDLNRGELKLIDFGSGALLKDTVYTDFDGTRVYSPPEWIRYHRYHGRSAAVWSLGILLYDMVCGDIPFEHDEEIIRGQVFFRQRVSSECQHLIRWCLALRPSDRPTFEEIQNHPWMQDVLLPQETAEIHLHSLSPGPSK

| IC50 [1, 4] [nM] | IC50 [2] [nM] | Structure (SMILES) | other results |
| --- | --- | --- | --- |
| – | – | COc1c(O)c(O)c2oc(-c3ccccc3)cc(=O)c2c1OC [Compound 1] | IC50 [1, 3]: 580 ± 200 nM |
| 1190 ± 70 | – | COc1ccc(/C=C2\Oc3cc(O)ccc3C2=O)cc1 [Compound 2] | IC50 [1, 3]: 1200 ± 100 nM |
| – | – | O=C1c2c(O)cc(O)cc2O[C@H](c2ccc(O)c(O)c2)[C@H]1O [Compound 3] | IC50 [1, 3]: 4000 ± 600 nM |
| – | – | O=c1c(-c2ccc(OC3OC(CO)C(O)C(O)C3O)cc2)coc2cc(O)cc(O)c12 (stereo not shown) [Compound 4] | IC50 [1, 3]: 20200 ± 2000 nM |
| 260 ± 50 | 15100 ± 1000 | COc1cccc(/C=C2\Oc3cc(O)ccc3C2=O)c1 [Compound 5, (Z)-6-Hydroxy-2-(3-methoxybenzylidene)benzofuran-3(2H)-one] | – |
| 310 ± 20 | – | COc1cccc(/C=C2\Oc3cc(O)cc(O)c3C2=O)c1 [Compound 6, (Z)-4,6-Dihydroxy-2-(3-methoxybenzylidene)benzofuran-3(2H)-one] | – |
| 1450 ± 100 | – | O=C1/C(=C/c2cccc(Cl)c2)Oc2cc(O)cc(O)c21 [Compound 7, (Z)-2-(3-Chlorobenzylidene)-4,6-dihydroxybenzofuran-3(2H)-one] | – |
| 200 ± 30 | 11200 ± 2000 | COc1cc(/C=C2\Oc3cc(O)ccc3C2=O)ccc1Cl [Compound 8, (Z)-2-(4-Chloro-3-methoxybenzylidene)-6-hydroxybenzofuran-3(2H)-one] | – |
| 150 ± 10 | – | COc1cc(/C=C2\Oc3cc(O)cc(O)c3C2=O)ccc1Cl [Compound 9, (Z)-2-(4-Chloro-3-methoxybenzylidene)-4,6-dihydroxybenzofuran-3(2H)-one] | – |
| 680 ± 80 | – | O=C1/C(=C/c2ccc(Cl)c(Cl)c2)Oc2cc(O)cc(O)c21 [Compound 10, (Z)-2-(3,4-Dichlorobenzylidene)-4,6-dihydroxybenzofuran-3(2H)-one] | – |
| 5230 ± 400 | – | COc1ccc(/C=C2\Oc3cc(O)ccc3C2=O)cn1 [Compound 11, (Z)-6-Hydroxy-2-((6-methoxypyridin-3-yl)methylene)benzofuran-3(2H)-one] | decrease of inhibitory activity by a factor ([1]; PIM1, relative to 5 (phenyl ring replaced with pyridine)): 20 |
| 5860 ± 1000 | – | O=C1/C(=C/c2ccc[nH]c2=O)Oc2cc(O)cc(O)c21 [Compound 12, (Z)-3-((4,6-Dihydroxy-3-oxobenzofuran-2(3H)-ylidene)methyl)pyridin-2(1H)-one] | – |
| 1730 ± 300 | – | O=C1/C(=C/c2cc3ccccc3[nH]c2=O)Oc2cc(O)cc(O)c21 [Compound 13, (Z)-3-((4,6-Dihydroxy-3-oxobenzofuran-2(3H)-ylidene)methyl)quinolin-2(1H)-one] | – |
| 18 ± 2 | 5900 ± 1000 | COc1cc(O)c2c(c1)O/C(=C\c1cc(-c3ccncc3)[nH]n1)C2=O [Compound 14] | – |
| 8.8 ± 2 | 3200 ± 600 | COc1cc(O)c2c(c1)O/C(=C\c1c[nH]c3ncc(Cl)cc13)C2=O [Compound 15, (Z)-2-((5-Chloro-1H-pyrrolo[2,3-b]pyridin-3-yl)methylene)-4-hydroxy-6-methoxybenzofuran-3(2H)-one] | – |
| 6.7 ± 3 | 4500 ± 800 | O=C1/C(=C/c2c[nH]c3nc(Cl)ncc23)Oc2cc(O)cc(O)c21 [Compound 16, (Z)-2-((2-Chloro-7H-pyrrolo[2,3-d]pyrimidin-5-yl)methylene)-4,6-dihydroxybenzofuran-3(2H)-one] | IC50 ([1]; PIM1): 7 nM |

| Structure (SMILES) | IC50 [1, 4] [nM] | IC50 [2] [nM] | other results |
| --- | --- | --- | --- |
| COC[C@H]1OC(=O)c2coc3c2[C@@]1(C)C1=C(C3=O)[C@@H]2CCC(=O)[C@@]2(C)C[C@H]1OC(C)=O [wortmannin, reference compound] | – | 3400 ± 200 | – |
